Experimental data from US10073099B2, “Methods and diagnostics for cancer detection and treatment monitoring” (University of New England, priority 2015, dated 2018).
Structures can show the parent of a compound that is named as a salt. Values belong to the compound of their own block, whether it stands above or below them.

Experiments:
[1] = tested on: MPO, Cytochrome P450 reductase; assay: MPO and Cytochrome P450 reductase expression and activity after Arginase activity inhibition; format: cell-based; conditions: after Arginase activity inhibition with 5 nM ABH
Excerpt: FIG. 12A and FIG. 12B present analysis of cytochrome P450 reductase; FIG. 12A presents a graph showing expression; FIG. 12B presents a graph showing activity. #, represents significance from ER+ and control groups; and ^, represents significance from ER−[CA] groups. n=4. P<0.01
FIG. 13A and FIG. 13B present analysis of MPO; FIG. 13A presents a graph showing expression; FIG. 13B presents a graph showing activity. #, represents significance from ER+ and control groups; and ^, represents significance from ER−[CA] groups. n=4. P<0.01.
(§1) The following inhibitory tests were performed to determine their role (and/or regulatory effect) on extra-tumoral NOHA accumulation. While NOHA is generated by NOS2 during nitric oxide production, it can be utilized in a NOS2 independent mechanism for nitric oxide generation, that could involve myeloperoxidase (MPO) mediated oxidation or cytochrome P450 reductase mediated pathway. Since NOHA is known to be a strong inhibitor of Arginase, and Arginase increase would favor tumor proliferation, the role of Arginase was also explored.

ER− 3D spheroids = assay: Medium NOHA level of 3D spheroids by ELISA in the presence of inhibitors; format: cell-based
Description: FIGS. 8A-8D present an analysis of medium NOHA level by ELISA in the presence or absence of inhibitors.
as §1, with “pathway.” for “pathway. Since NOHA is known to be a strong inhibitor of Arginase, and Arginase increase would favor tumor proliferation, the role of Arginase was also explored.”

[2] = NOHA stability analysis by ELISA, in vitro medium spiked with NOHA; format: physicochemical; conditions: medium spiked with 75 pg/ml NOHA
Description: FIG. 6A presents an In Vitro medium NOHA stability analysis based on incubation duration and temperature condition for up to 6 weeks. n=4.
ELISA Method. 50 μl of NOHA standard sample concentration prepared in Locke's buffer (viz., 10 mM HEPES, 5.6 mM KCl, 154 mM NaCl, 5.6 mM glucose, 1.2 mM MgCl2, 2.3 mM CaCl2, pH 7.4) was mixed with 50 μl of primary NOHA antibody serum (at 1:200 dilution, Pierce Thermo Fisher) and incubated for 30 min at 4° C. The mixture was added to a 96 well plate pre-coated with […] (at 100 pg/ml concentration, in Locke's buffer). The plate was then incubated for 1 hour on a plate-rotator at 500 rpm, at 2-8° C. After incubation, the well content was aspirated, and the wells were washed three times with 200 μl ice-cold wash buffer (10 mM phosphate buffer pH 7.4, 150 mM NaCl, 0.05% Tween 20). 100 μl of enzyme conjugated secondary antibody (at 1:20,000 dilution in wash buffer) was added, and incubated for 1 hour on a plate rotator at 500 rpm, at 2-8° C. At the end of this incubation, the wells were washed again three times with 200 μl ice-cold wash buffer. […] The plates were then read at 450 nm, within 10 min after adding stop solution.
In vitro medium. To analyze NOHA stability via ELISA assay, medium was spiked with 75 pg/ml of NOHA and NOHA recovery was determined over 6 weeks at different temperatures (viz., −80° C., −20° C., 4° C., 25° C., 37° C. and 42° C.). […]

[3] = NOHA stability analysis over temperature in extracellular matrix medium of 3D spheroids, LC-MS; format: physicochemical
Description: Extracellular matrix medium from cancerous and non-cancerous 3D spheroid (viz., 300 μl/spheroid cell line), that was collected on day 7 after spheroid formation were divided in to six (6) equal volumes of 50 μl each. Each of the 50-μl fractions/spheroid cell lines were incubated at −80° C., −20° C., 4° C., 25° C., 37° C. and 42° C. for 1, 3, 5, 7, 10, 12, and 14 days. At the end of the incubation, NOHA level was monitored by LC-MS (Tables 4.1-4.6).
Those medium samples that were incubated at higher temperature of 42° C. suffered the most with NOHA stability, which lasted for only 3 days (Table 4.4).
Tables 4.1-4.6: NOHA measurements after incubation at various temperatures

increase in Cytochrome P450 reductase expression and activity [1]: ≥ 0.98
increase in MPO expression and activity [1]: ≥ 1.2 fold
SMILES: N[C@@H](CCCCB(O)O)C(=O)O [ABH, 2(s)-amino-6-boronohexanoic acid]
change in medium NOHA level (ER− 3D spheroids; 5 nM ABH, versus absence of ABH): no significant disease specific or ethnic specific change

SMILES: NC(=NCCC[C@H](N)C(=O)O)NO [NOHA, N^w-hydroxy-L-Arginine]
period over which NOHA was stable ([2]; 4° C. and below (4, −20, −80° C.)): 6 week
period over which NOHA maintained stability ([2]; 25° C., 37° C. and 42° C.): 1 week
degradation or reduction in NOHA level ([3]; extracellular matrix medium at 4° C., −20° C., and −80° C., 14-day incubation): no significant degradation or reduction
duration of stable NOHA monitoring level ([3]; medium samples incubated at 25° C.): 12 days
duration of NOHA stability ([3]; medium samples incubated at 42° C.): 3 days
duration of stable NOHA monitoring ([3]; medium samples stored at 37° C.): up to 7 days

SMILES: Clc1ccc(COC(Cn2ccnc2)c2ccc(Cl)cc2Cl)c(Cl)c1 (centres unmarked) [micronazole salt]
increase in medium NOHA level (ER− 3D spheroids; ER−[AA], 10 μM inhibitor, over a 9 week period): ≥ 0.79 fold
NOHA increase in the medium (ER− 3D spheroids; ER−[CA], 10 μM inhibitor, over a 9 week period): ≥ 0.42 fold
